Experimental data taken from US11725011B2, “Bicyclic urea kinase inhibitors and uses thereof” (The Broad Institute, Inc., priority 2016, dated 2023).

Columns and labels:
[1] = target: CDK4-cyclinD3 (Homo sapiens (Human), UniProt P11802); assay: KINOMEscan; assay type: binding; conditions: 1 uM
[2] = target: ERK8 (Homo sapiens (Human), UniProt Q8TD08); assay: KINOMEscan; assay type: binding; conditions: 1 uM
[3] = target: CAMK4 (Homo sapiens (Human), UniProt Q16566); assay: KINOMEscan; assay type: binding; conditions: 1 uM
[4] = target: STK35 (Homo sapiens (Human), UniProt Q8TDR2); assay: KINOMEscan; assay type: binding; conditions: 1 uM
[5] = target: PAK6 (Homo sapiens (Human), UniProt Q9NQU5); assay: KINOMEscan; assay type: binding; conditions: 1 uM
[6] = target: EGFR (L747-S752del, P753S) (Homo sapiens (Human), UniProt P00533, DEL747-752/P753S); assay: KINOMEscan; assay type: binding; conditions: 1 uM
[7] = target: YSK4 (Homo sapiens (Human), UniProt Q56UN5); assay: KINOMEscan; assay type: binding; conditions: 1 uM
Sequence of YSK4 (Q56UN5 whole entry): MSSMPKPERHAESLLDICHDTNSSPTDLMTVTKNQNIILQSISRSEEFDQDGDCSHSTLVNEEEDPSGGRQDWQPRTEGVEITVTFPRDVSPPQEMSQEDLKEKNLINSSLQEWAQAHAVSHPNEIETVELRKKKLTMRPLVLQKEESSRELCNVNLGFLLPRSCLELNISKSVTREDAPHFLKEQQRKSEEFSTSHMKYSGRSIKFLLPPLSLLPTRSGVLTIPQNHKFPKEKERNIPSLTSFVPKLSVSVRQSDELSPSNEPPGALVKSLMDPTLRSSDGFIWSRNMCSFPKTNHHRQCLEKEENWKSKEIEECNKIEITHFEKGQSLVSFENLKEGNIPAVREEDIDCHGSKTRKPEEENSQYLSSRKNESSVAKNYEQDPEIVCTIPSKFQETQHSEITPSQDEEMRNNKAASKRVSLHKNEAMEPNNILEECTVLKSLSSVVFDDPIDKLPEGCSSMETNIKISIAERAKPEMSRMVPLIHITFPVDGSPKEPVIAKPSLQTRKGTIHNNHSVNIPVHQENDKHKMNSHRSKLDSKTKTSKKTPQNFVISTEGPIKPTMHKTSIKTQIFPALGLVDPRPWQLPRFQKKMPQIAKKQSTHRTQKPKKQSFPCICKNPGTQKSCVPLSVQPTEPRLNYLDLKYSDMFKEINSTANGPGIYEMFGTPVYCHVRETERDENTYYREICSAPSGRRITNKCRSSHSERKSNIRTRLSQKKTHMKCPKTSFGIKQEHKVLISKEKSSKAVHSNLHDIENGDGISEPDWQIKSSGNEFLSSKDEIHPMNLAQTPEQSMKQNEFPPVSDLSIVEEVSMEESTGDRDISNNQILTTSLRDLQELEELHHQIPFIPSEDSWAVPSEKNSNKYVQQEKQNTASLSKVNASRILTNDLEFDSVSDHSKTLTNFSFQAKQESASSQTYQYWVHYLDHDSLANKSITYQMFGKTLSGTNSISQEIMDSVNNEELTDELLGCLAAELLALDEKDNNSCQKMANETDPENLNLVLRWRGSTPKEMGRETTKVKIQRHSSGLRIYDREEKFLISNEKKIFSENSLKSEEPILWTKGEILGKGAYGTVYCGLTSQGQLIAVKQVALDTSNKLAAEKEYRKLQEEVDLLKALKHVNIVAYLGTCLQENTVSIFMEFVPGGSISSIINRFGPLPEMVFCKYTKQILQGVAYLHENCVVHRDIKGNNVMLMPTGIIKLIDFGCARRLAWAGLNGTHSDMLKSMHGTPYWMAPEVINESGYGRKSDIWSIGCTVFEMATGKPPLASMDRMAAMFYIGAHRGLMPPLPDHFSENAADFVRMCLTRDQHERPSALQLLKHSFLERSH

[8] = target: AXL (Homo sapiens (Human), UniProt P30530); assay: KINOMEscan; assay type: binding; conditions: 1 uM
[9] = target: FLT4 (Homo sapiens (Human), UniProt P35916); assay: KINOMEscan; assay type: binding; conditions: 1 uM
Sequence of FLT4 (P35916 25-1363): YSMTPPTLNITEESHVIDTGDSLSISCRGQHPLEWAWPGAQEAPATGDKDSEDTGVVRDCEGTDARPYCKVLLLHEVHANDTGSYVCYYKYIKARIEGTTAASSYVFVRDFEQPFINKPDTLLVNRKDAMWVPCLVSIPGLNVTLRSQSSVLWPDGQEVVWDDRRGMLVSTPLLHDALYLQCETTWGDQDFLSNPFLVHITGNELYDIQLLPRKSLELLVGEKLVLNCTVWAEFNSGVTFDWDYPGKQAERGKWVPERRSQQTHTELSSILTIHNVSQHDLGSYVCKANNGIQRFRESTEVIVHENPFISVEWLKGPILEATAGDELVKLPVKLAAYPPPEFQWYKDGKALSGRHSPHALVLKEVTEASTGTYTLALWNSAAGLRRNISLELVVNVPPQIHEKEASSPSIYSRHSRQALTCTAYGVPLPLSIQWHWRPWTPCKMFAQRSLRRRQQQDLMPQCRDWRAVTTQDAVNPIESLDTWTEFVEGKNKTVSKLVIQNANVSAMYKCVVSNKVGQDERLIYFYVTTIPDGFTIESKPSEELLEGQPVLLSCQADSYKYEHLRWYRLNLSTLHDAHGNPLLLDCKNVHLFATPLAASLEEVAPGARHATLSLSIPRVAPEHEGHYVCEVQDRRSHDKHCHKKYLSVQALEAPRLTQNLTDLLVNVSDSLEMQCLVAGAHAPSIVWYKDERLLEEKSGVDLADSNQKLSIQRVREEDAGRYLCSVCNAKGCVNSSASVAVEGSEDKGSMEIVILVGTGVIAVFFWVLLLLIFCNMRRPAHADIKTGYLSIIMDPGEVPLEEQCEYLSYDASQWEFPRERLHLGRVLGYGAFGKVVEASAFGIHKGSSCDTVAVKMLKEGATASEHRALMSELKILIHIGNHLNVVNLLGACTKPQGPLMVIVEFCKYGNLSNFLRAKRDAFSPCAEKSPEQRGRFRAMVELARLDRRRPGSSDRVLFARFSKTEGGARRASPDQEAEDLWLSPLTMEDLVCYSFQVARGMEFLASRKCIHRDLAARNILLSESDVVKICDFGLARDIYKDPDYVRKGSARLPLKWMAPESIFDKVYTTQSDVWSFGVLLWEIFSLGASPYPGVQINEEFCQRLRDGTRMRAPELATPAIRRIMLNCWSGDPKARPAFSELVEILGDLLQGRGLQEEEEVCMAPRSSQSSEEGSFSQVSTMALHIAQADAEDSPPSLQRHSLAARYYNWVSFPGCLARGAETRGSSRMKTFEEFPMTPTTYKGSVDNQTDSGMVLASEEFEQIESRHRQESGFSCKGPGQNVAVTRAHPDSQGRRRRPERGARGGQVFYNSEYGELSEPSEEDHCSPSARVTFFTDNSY

[10] = target: ACVR1B (Homo sapiens (Human), UniProt P36896); assay: KINOMEscan; assay type: binding; conditions: 1 uM
[11] = target: ERBB4 (Homo sapiens (Human), UniProt Q15303); assay: KINOMEscan; assay type: binding; conditions: 1 uM
[12] = target: TYK2 (JH2domain-pseudokinase) (Homo sapiens (Human), UniProt P29597); assay: KINOMEscan; assay type: binding; conditions: 1 uM
Sequence of TYK2 (JH2domain-pseudokinase) (P29597 589-875): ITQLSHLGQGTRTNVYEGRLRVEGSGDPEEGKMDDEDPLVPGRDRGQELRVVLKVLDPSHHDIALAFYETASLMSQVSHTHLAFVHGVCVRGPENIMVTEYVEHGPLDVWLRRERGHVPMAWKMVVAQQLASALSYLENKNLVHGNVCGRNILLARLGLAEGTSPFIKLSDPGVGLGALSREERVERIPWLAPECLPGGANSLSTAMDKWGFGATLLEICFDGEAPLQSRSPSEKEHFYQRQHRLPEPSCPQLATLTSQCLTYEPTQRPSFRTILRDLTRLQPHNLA

[13] = target: DDR1 (Homo sapiens (Human), UniProt Q08345); assay: KINOMEscan; assay type: binding; conditions: 1 uM
[14] = target: SNARK (Homo sapiens (Human), UniProt Q9H093); assay: KINOMEscan; assay type: binding; conditions: 1 uM
[15] = target: RAF1 (Homo sapiens (Human), UniProt P04049); assay: KINOMEscan; assay type: binding; conditions: 1 uM
[16] = target: DLK (Homo sapiens (Human), UniProt Q12852); assay: KINOMEscan; assay type: binding; conditions: 1 uM
[17] = target: TLK2 (Homo sapiens (Human), UniProt Q86UE8); assay: KINOMEscan; assay type: binding; conditions: 1 uM
[18] = target: NEK2 (Homo sapiens (Human), UniProt P51955); assay: KINOMEscan; assay type: binding; conditions: 1 uM
[19] = target: EPHA7 (Homo sapiens (Human), UniProt Q15375); assay: KINOMEscan; assay type: binding; conditions: 1 uM
[20] = target: AMPK-alpha2 (Homo sapiens (Human), UniProt P54646); assay: KINOMEscan; assay type: binding; conditions: 1 uM
[21] = qAC50 biological assay (Table 4)
[22] = target: CSF1R (Homo sapiens (Human), UniProt P07333); assay: KINOMEscan; assay type: binding; conditions: 1 uM
[23] = target: ACVR1 (Homo sapiens (Human), UniProt Q04771); assay: KINOMEscan; assay type: binding; conditions: 1 uM
[24] = target: ABL1 (H396P)-phosphorylated (Homo sapiens (Human), UniProt P00519, H396P); assay: KINOMEscan; assay type: binding; conditions: 1 uM
[25] = target: CHEK2 (Homo sapiens (Human), UniProt O96017); assay: KINOMEscan; assay type: binding; conditions: 1 uM
[26] = target: SRPK2 (Homo sapiens (Human), UniProt P78362); assay: KINOMEscan; assay type: binding; conditions: 1 uM
[27] = target: EGFR (E746-A750del) (Homo sapiens (Human), UniProt P00533, DEL746-750); assay: KINOMEscan; assay type: binding; conditions: 1 uM
[28] = target: BUB1 (Homo sapiens (Human), UniProt O43683); assay: KINOMEscan; assay type: binding; conditions: 1 uM
[29] = target: SIK (Homo sapiens (Human), UniProt P57059); assay: KINOMEscan; assay type: binding; conditions: 1 uM
Sequence of SIK (P57059 whole entry): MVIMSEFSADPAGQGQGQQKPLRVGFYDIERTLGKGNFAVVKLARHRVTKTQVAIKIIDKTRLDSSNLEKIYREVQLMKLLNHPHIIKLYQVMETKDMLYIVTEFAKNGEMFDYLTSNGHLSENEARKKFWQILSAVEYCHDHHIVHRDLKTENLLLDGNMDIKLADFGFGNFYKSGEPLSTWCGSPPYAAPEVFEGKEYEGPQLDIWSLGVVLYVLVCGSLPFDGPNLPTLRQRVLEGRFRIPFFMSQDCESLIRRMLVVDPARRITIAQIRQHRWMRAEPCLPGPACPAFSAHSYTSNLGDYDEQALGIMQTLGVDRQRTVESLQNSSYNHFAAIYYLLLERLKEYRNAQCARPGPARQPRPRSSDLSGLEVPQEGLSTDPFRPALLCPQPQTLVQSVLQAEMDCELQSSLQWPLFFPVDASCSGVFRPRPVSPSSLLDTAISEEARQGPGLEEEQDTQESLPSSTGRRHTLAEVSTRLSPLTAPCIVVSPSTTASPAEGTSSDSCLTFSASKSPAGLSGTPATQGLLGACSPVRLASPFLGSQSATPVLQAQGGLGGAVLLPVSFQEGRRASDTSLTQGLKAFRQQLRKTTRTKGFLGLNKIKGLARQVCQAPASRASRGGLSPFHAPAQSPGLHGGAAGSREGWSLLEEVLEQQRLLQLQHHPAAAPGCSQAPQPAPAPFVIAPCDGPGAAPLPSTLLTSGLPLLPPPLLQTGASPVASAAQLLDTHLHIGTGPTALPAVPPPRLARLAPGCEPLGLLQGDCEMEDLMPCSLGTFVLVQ

[30] = target: MARK2 (Homo sapiens (Human), UniProt Q7KZI7); assay: KINOMEscan; assay type: binding; conditions: 1 uM
[31] = target: TXK (Homo sapiens (Human), UniProt P42681); assay: KINOMEscan; assay type: binding; conditions: 1 uM
[32] = target: ARK5 (Homo sapiens (Human), UniProt O60285); assay: KINOMEscan; assay type: binding; conditions: 1 uM
[33] = target: IRAK3 (Homo sapiens (Human), UniProt Q9Y616); assay: KINOMEscan; assay type: binding; conditions: 1 uM
[34] = target: ASK1 (Homo sapiens (Human), UniProt Q99683); assay: KINOMEscan; assay type: binding; conditions: 1 uM
[35] = target: PLK1 (Homo sapiens (Human), UniProt P53350); assay: KINOMEscan; assay type: binding; conditions: 1 uM
[36] = target: EGFR (L858R) (Homo sapiens (Human), UniProt P00533, L858R); assay: KINOMEscan; assay type: binding; conditions: 1 uM
[37] = target: MAP4K5 (Homo sapiens (Human), UniProt Q9Y4K4); assay: KINOMEscan; assay type: binding; conditions: 1 uM
[38] = target: ABL1 (T315I)-phosphorylated (Homo sapiens (Human), UniProt P00519, T315I); assay: KINOMEscan; assay type: binding; conditions: 1 uM
[39] = target: DMPK2 (Homo sapiens (Human), UniProt Q6DT37); assay: KINOMEscan; assay type: binding; conditions: 1 uM
[40] = target: S6K1 (Homo sapiens (Human), UniProt P23443); assay: KINOMEscan; assay type: binding; conditions: 1 uM
Sequence of S6K1 (P23443 whole entry): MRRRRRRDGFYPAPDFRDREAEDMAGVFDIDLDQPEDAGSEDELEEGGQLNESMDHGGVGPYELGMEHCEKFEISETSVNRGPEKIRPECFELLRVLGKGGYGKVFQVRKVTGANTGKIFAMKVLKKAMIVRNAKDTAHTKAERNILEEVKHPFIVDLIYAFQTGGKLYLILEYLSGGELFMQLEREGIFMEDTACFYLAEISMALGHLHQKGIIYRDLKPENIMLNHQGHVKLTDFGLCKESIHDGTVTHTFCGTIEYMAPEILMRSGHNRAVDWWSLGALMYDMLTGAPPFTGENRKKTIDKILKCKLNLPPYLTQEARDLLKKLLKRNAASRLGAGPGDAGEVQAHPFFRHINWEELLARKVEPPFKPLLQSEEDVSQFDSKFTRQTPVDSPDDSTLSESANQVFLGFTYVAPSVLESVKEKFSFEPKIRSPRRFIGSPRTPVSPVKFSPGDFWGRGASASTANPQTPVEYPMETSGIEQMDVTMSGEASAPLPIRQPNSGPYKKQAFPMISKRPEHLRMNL

[41] = target: FLT3 (N841I) (Homo sapiens (Human), UniProt P36888, N841I); assay: KINOMEscan; assay type: binding; conditions: 1 uM

Sequence of ERK8 (Q8TD08 whole entry): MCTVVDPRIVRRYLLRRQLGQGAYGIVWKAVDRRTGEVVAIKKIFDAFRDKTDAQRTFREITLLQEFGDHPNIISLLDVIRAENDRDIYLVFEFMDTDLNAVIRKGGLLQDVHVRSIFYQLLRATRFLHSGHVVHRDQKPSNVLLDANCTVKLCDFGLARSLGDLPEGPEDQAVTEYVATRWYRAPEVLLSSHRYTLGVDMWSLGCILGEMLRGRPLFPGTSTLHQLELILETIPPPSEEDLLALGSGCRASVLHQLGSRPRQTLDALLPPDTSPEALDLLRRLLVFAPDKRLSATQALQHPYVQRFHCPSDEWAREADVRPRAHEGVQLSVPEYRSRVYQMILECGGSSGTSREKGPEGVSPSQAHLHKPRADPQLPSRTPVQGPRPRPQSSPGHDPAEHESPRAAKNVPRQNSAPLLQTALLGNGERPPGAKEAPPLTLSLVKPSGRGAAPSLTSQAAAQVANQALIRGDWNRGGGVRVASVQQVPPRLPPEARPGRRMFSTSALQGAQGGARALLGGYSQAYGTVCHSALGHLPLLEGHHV

COc1ccc(N2C(=O)N(c3c(C)cccc3C)Cc3cnc(Nc4ccc(N5CCN(C)CC5)cc4)nc32)c(OC)c1 [HG-11-136-01]
KINOMEscan CDK4-cyclinD3 [1]: 26 | KINOMEscan ERK8 [2]: 88 | KINOMEscan CAMK4 [3]: 100 | KINOMEscan STK35 [4]: 49 | KINOMEscan PAK6 [5]: 37 | KINOMEscan EGFR (L747-S752del, P753S) [6]: 0.95 | KINOMEscan YSK4 [7]: 0.4 | KINOMEscan AXL [8]: 25 | KINOMEscan FLT4 [9]: 6.6 | KINOMEscan ACVR1B [10]: 9.6 | KINOMEscan ERBB4 [11]: 0.2 | KINOMEscan TYK2 (JH2domain-pseudokinase) [12]: 1.2 | KINOMEscan DDR1 [13]: 0.3 | KINOMEscan SNARK [14]: 0.4 | KINOMEscan RAF1 [15]: 93 | KINOMEscan DLK [16]: 6.6 | KINOMEscan TLK2 [17]: 92 | KINOMEscan NEK2 [18]: 75 | KINOMEscan EPHA7 [19]: 72 | KINOMEscan AMPK-alpha2 [20]: 30 | qAC50 [21]: 171 nM | Data Mode ([21]; curve direction of qAC50 data): decreasing | KINOMEscan CSF1R [22]: 0.35 | KINOMEscan ACVR1 [23]: 2.8 | KINOMEscan ABL1 (H396P)-phosphorylated [24]: 0 | KINOMEscan CHEK2 [25]: 46 | KINOMEscan SRPK2 [26]: 93 | KINOMEscan EGFR (E746-A750del) [27]: 1.8 | KINOMEscan BUB1 [28]: 100 | KINOMEscan SIK [29]: 0.9 | KINOMEscan MARK2 [30]: 3.7 | KINOMEscan TXK [31]: 0.25 | KINOMEscan ARK5 [32]: 8.2 | KINOMEscan IRAK3 [33]: 38 | KINOMEscan ASK1 [34]: 100 | KINOMEscan PLK1 [35]: 60 | KINOMEscan EGFR (L858R) [36]: 0.1 | KINOMEscan MAP4K5 [37]: 0.3 | KINOMEscan ABL1 (T315I)-phosphorylated [38]: 1.2 | KINOMEscan DMPK2 [39]: 1.6 | KINOMEscan S6K1 [40]: 72 | KINOMEscan FLT3 (N841I) [41]: 11
